Test results as given in US20080076772A1, “Anti-Inflammatory Agents” (Pharma Mar S.A. Sociedad Unipersonal, priority 2004, published 2008).

Columns and labels:
[1] = system: IL-6; assay: IL-6 production by LPS-stimulated monocytes (ELISA); format: cell-based; conditions: Homo sapiens, Monocyte; 5 nM, n=2; read-out: overall inhibition of IL-6 production, monocytes
Method: (§1) Supernatants of untreated cells or cells treated with ecteinascidin 743 or other anti-neoplastic agents were collected after 24 h culture and frozen. Monocytes, macrophages and TAM were stimulated with 100 ng/ml LPS to induce maximal cytokine production. Determination of cytokines CCL2, TNF and IL-6 was measured by specific ELISA following the manufacturer's instructions.
(§2) Monocytes and in vitro differentiated macrophages were stimulated with LPS (100 ng/ml). After 1 h LPS stimulation they were treated with ecteinascidin 743. After 16 h incubation, cell supernatants were harvested and tested in ELISA. Under these treatment conditions cell viability was usually >85% for concentrations up to 5 nM. […] Mean inhibition at 5 nM, for monocytes, was 65% (range 50-80%, n=5) and was 50% (range 25-75%, n=5) for in vitro differentiated macrophages. Results are mean+/−SE of 3-5 experiments
We also tested two other cytokines, IL-6 and TNF, produced by macrophages and tumour cells, which have inflammatory properties and also act as growth factors for some tumours. IL-6 production was always reduced after ecteinascidin 743 treatment, with an overall inhibition at 5 nM of 54% (range 51-57%, n=2) and 69% (range 66-72%, n=2), in monocytes and macrophages, respectively (FIG. 6B). […]

[2] = system: macrophage differentiation; assay: In vitro macrophage differentiation of monocytes with M-CSF (phenotype analysis); format: cell-based, human; conditions: 1 nM, 5 days with M-CSF 20 ng/ml
Method: Expression of cell membrane markers was performed by immunofluoresce and analyzed by Flow Cytometry. Cells were incubated with anti-CD14, anti-CD16, anti-CD68, anti-CD206 (mannose receptor) and then with FITC-goat anti-mouse Ig as described. At least 10,000 cells were analyzed.
In order to study the effect of ecteinascidin 743 on macrophage differentiation, non cytotoxic doses of the drug were used. Monocytes were cultured with M-CSF (20 ng/ml) and with sub-cytotoxic concentrations of ecteinascidin 743 for 5 days. Phenotype analysis was performed by indirect immunofluorescence and analyzed in Flow Cytometry by gating on large cells. Usually, an average of 65±15% (mean±SD of>10 experiments) of input monocytes differentiate into large cells expressing typical macrophage markers, including CD16, CD68 and CD206 (mannose receptor). After 5 days of culture monocyte viability, evaluated by propidium iodide staining in flow cytometry, was 92% and 70% of untreated cells at 0.5 and 1 nM ecteinascidin 743, respectively.

[3] = system: CCL2; assay: CCL2 production by LPS-stimulated in vitro differentiated macrophages (ELISA); format: cell-based; conditions: Homo sapiens, Macrophage; 5 nM, LPS 100 ng/ml, 16 h, n=5
Method: as §1, §2

[4] = system: in vitro differentiated macrophages; assay: Cell viability of in vitro differentiated macrophages (PI staining, flow cytometry); format: cell-based, human
Method: Apoptosis was detected by staining with AnnexinV and PI.
We next studied the effect of ecteinascidin 743 on already differentiated macrophages obtained from monocytes cultured in vitro for 5 days with M-CSF. […] Monocytes were differentiated to macrophages by culture with M-CSF (20 ng/ml). At day 3, ecteinascidin 743 was added to cultures and incubated for 48 h. […] Similar results were obtained in other 4 experiments. In a series of 4 different experiments, IC50 for in vitro differentiated was 10 nM.
We then tested the susceptibility to ecteinascidin 743 of macrophages classically activated by LPS and IFN gamma (or M1 macrophages) and alternatively activated by IL-4 (or M2 macrophages). In vitro differentiated macrophages were stimulated with LPS (100 ng/ml)+IFNgamma (500 UI:ml), Il-4 (20 ng/ml), in the presence or absence of ecteinascidin 743 for 48 h.

[5] = system: TNF; assay: TNF production by LPS-stimulated monocytes (ELISA); format: cell-based, human; conditions: LPS 100 ng/ml, 16 h incubation
Method: Monocytes, macrophages and TAM were stimulated with 100 ng/ml LPS to induce maximal cytokine production. Determination of cytokines CCL2, TNF and IL-6 was measured by specific ELISA following the manufacturer's instructions.
To verify whether the inhibitory effect of ecteinascidin 743 on cytokine production was at the transcriptional level, we analyzed mRNA of CCL2 and TNF from LPS-stimulated macrophages by real time-PCR of CCL2 and TNF transcripts in LPS-stimulated monocytes exposed to ecteinascidin 743.
CCL2 and TNF production by LPS-stimulated monocytes treated with the indicated doses of the anti-tumor agents was also tested. […] […] None of these compounds interfered with the production of TNF.

COc1cc2c(cc1O)CCN[C@]21CS[C@@H]2c3c(OC(C)=O)c(C)c4c(c3[C@H](COC1=O)N1[C@@H]2[C@H]2c3c(cc(C)c(OC)c3O)C[C@@H]([C@@H]1O)N2C)OCO4 [ecteinascidin 743]
inhibition at 0.005 µM [1]: 54% | de novo expression of CD68, CD16 and CD206 [2]: reduced | inhibition at 0.005 µM [3]: 50% | IC50 ([4]; Homo sapiens, Macrophage, drug added in the last 48 h, series of 4 experiments): 10 nM | susceptibility of LPS-stimulated and IL-4-stimulated macrophages ([4]; LPS 100 ng/ml + IFNgamma 500 UI/ml or IL-4 20 ng/ml, 48 h): susceptible to drug treatment similarly as non-stimulated macrophages | production of TNF by monocytes [5]: never inhibited
